ChEMBL document CHEMBL4371067, “Discovery of N-substituted 7-azaindoles as Pan-PIM kinases inhibitors - Lead optimization - Part III” (Bioorg Med Chem Lett, 2019)
≈ marks a conversion by molar mass, not a printed value.

Columns and labels:
[1] = target: Serine/threonine-protein kinase pim-2 (Homo sapiens, UniProt Q9P1W9); experiment: Inhibition of PIM2 (unknown origin) assessed as reduction in BAD phosphorylation at Ser-112 residue by TR-FRET assay
[2] = Clearance in human liver microsomes assessed as drug extraction at 5 uM; type: ADME, Microsome; details: for hepatic extraction ratio at 5 µM: liver microsomes, read-out: CLH; for CLH: microsomes, 5 µM
[3] = Permeability in human Caco2/TC7 cells at 5 uM; type: ADME, cell-based; details: for Papp at 5 µM: Caco-2, read-out: permeability; for permeability: caco2/tc7, 5 µM, 5 µM
[4] = target: Voltage-gated inwardly rectifying potassium channel KCNH2 (Homo sapiens, UniProt Q12809); experiment: Inhibition of human ERG
[5] = test system: KG-1; experiment: Antiproliferative activity against human KG1 cells; type: functional, cell-based
[6] = Clearance in mouse liver microsomes assessed as drug extraction at 5 uM; type: ADME, Microsome; details: for hepatic extraction ratio at 5 µM: liver microsomes, read-out: CLH; for CLH: microsomes, 5 µM
[7] = target: Serine/threonine-protein kinase PIM (Homo sapiens, UniProt P11309+Q9P1W9+Q86V86); experiment: Inhibition of PIM in human KG1 cells assessed as reduction in pS6 level; type: cell-based
[8] = target: Serine/threonine-protein kinase pim-1 (Homo sapiens, UniProt P11309); experiment: Inhibition of PIM1 (unknown origin) assessed as reduction in BAD phosphorylation at Ser-112 residue by TR-FRET assay
[9] = Volume of distribution at steady state in rat at 3 mg/kg, iv administered as single dose; type: ADME, organism-based; details: in vivo, read-out: Vdss
[10] = Half life in rat at 10 mg/kg, po administered as single dose; type: ADME, organism-based; details: in vivo
[11] = Cmax in rat at 10 mg/kg, po administered as single dose; type: ADME, organism-based; parameters: dose 10 mg/kg, route oral; details: in vivo
[12] = AUC (0 to infinity) in rat at 10 mg/kg, po administered as single dose; type: ADME, organism-based; parameters: dose 10 mg/kg, route oral, time infinity; details: in vivo
[13] = AUC (0 to infinity) in rat at 3 mg/kg, iv administered as single dose; type: ADME, organism-based; parameters: dose 3 mg/kg, route intravenous, time infinity; details: in vivo
[14] = Clearance in rat at 3 mg/kg, iv administered as single dose; type: ADME, organism-based; details: in vivo
[15] = Half life in rat at 3 mg/kg, iv administered as single dose; type: ADME, organism-based; details: in vivo
[16] = Oral bioavailability in rat at 10 mg/kg administered as single dose; type: ADME, organism-based; details: in vivo
[17] = target: T1, hERG (KCNH2) (Homo sapiens, UniProt Q12809); experiment: Inhibition of human ERG at 1 uM relative to control
[18] = Thermodynamic solubility in pH 7.4 solution; type: physicochemical; details: buffer, read-out: Therm_solubility
[19] = Efflux ratio of permeability in human Caco2/TC7 cells at 5 uM; type: ADME, cell-based; details: Caco-2
[20] = target: T1, hERG (KCNH2); experiment: Inhibition of human ERG at 10 uM relative to control

SMILES | IC50 [1] [nM] | hepatic extraction ratio at 5 µM [2] | Papp at 5 µM [3] [×10⁻⁶ cm/s] | IC50 [4] [nM] | EC50 ([5]; Homo sapiens, KG-1) [nM] | hepatic extraction ratio at 5 µM [6] | EC50 [7] [nM] | IC50 [8] [nM] | inhibition at 1 µM [17] [%] | inhibition at 10 µM [20] [%] | Ki [8] [nM] | further results
CC1(CC#Cc2c(Cl)c3c(Cl)cc(C(N)=O)nc3n2[C@H]2CCCNC2)COC1 | 15.7 | 0.12 | 1.2 | 5000 | 289 | 0.35 | 33 | 2.4 | – | – | – | –
NC(=O)c1cc(Cl)c2c(Cl)c(C#CC3CCOCC3)n([C@H]3CCCNC3)c2n1 | 10.2 | 0.07 | 3.4 | 1700 | 69 | 0.13 | 53 | 1.5 | – | – | – | Vd [9]: 63 L/kg; half-life [10]: 10.2 h; Cmax [11]: 91 ng/mL; AUC(0-inf) [12]: 979 ng·h/mL; AUC(0-inf) [13]: 440 ng·h/mL; clearance [14]: 102 mL/min/kg; half-life [15]: 7.41 h; bioavailability [16]: 67%
CC(C)(C#N)CC#Cc1c(Cl)c2c(Cl)cc(C(N)=O)nc2n1[C@H]1CCCNC1 | 29.4 | 0.03 | 6.5 | 3000 | 113 | 0.08 | 90 | 5.8 | – | – | – | –
COCC(C)(C)C#Cc1c(Cl)c2c(Cl)cc(C(N)=O)nc2n1[C@H]1CCCNC1 | 4 | 0.1 | 4.8 | 1100 | 219 | 0.32 | 98 | 1.6 | – | – | – | –
NC(=O)c1cc(Cl)c2c(Cl)c(C#CCN3CCCC3=O)n([C@H]3CCCNC3)c2n1 | 6.7 | 0.03 | 0.01 | > 20000 | 178 | 0.26 | 93 | 2 | – | – | – | –
CC(O)CC#Cc1c(Cl)c2c(Cl)cc(C(N)=O)nc2n1[C@H]1CCCNC1 (some centres undefined) | 6.1 | 0.06 | 0.24 | – | 48 | – | 32 | 1 | 13 | 23 | 0.6 | solubility thermodynamic [18]: 760 µM (≈ 300 µg/mL); efflux ratio at 5 µM [19]: 53
NC(=O)c1cc(Cl)c2c(Cl)c(C#CC3CNCCO3)n([C@H]3CCCNC3)c2n1 (stereo in doubt; 29a) | 6.1 | – | – | 6000 | 365 | 0.22 | 283 | 2.8 | – | – | – | CLH [2]: 6%; permeability [3]: 8 ×10⁻⁷ cm/s
NC(=O)c1cc(Cl)c2c(Cl)c(C#CC3COCCO3)n([C@H]3CCCNC3)c2n1 (stereo in doubt; 22a) | 8.8 | 0.1 | – | 1400 | – | – | 70 | 2.3 | – | – | – | permeability [3]: 81 ×10⁻⁷ cm/s; EC50 ([5]; kg-1): 77 nM; CLH [6]: 30%
CN1CC(C#Cc2c(Cl)c3c(Cl)cc(C(N)=O)nc3n2[C@H]2CCCNC2)CC1=O (some centres undefined) | 17.5 | 0.05 | 0.05 | > 20000 | 155 | 0.22 | 128 | 3.1 | – | – | 1.2 | –
NC(=O)c1cc(Cl)c2c(Cl)c(C#CCCO)n([C@H]3CCCNC3)c2n1 | 2.7 | 0 | 0.18 | – | 56 | – | 18 | 0.6 | 12 | 25 | 0.1 | solubility thermodynamic [18]: 144 µM (≈ 54.9 µg/mL); efflux ratio at 5 µM [19]: 8.8
NC(=O)c1cc(Cl)c2c(Cl)c(C#CC3COCCO3)n([C@H]3CCCNC3)c2n1 (stereo in doubt; 22b) | 6 | – | – | – | – | – | 95 | 2.3 | 20 | 86 | – | CLH [2]: 10%; permeability [3]: 9 ×10⁻⁷ cm/s; EC50 ([5]; kg-1): 203 nM; CLH [6]: 4%
NC(=O)c1cc(Cl)c2c(Cl)c(C#CC3CCCO3)n([C@H]3CCCNC3)c2n1 (stereo in doubt; 20a) | 21 | – | 3.2 | – | – | – | 137 | 4.4 | – | – | – | solubility thermodynamic [18]: 207 µM (≈ 84.3 µg/mL); EC50 ([5]; kg-1): 223 nM
COC(C)(C)CC#Cc1c(Cl)c2c(Cl)cc(C(N)=O)nc2n1[C@H]1CCCNC1 | 10.4 | 0.12 | 4.5 | 4000 | 172 | 0.33 | 61 | 2.3 | – | – | – | solubility thermodynamic [18]: 1.2 µM (≈ 0.508 µg/mL)
CC(C)(O)C#Cc1c(Cl)c2c(Cl)cc(C(N)=O)nc2n1[C@H]1CCCNC1 | 9.9 | 0 | 0.14 | – | 302 | – | 36 | 2.2 | 20 | 47 | – | –
CC1(C#Cc2c(Cl)c3c(Cl)cc(C(N)=O)nc3n2[C@H]2CCCNC2)COC1 | 5.7 | 0.05 | 2.9 | 3000 | 119 | 0.19 | 37 | 1.6 | – | – | 1.2 | –
CC(O)C#Cc1c(Cl)c2c(Cl)cc(C(N)=O)nc2n1[C@H]1CCCNC1 (some centres undefined) | 9.3 | 0 | 0.34 | – | 147 | – | 13 | 1.1 | 9 | 20 | 0.7 | solubility thermodynamic [18]: 206 µM (≈ 78.5 µg/mL); efflux ratio at 5 µM [19]: 37
NC(=O)c1cc(Cl)c2c(Cl)c(C#CC3CNCCO3)n([C@H]3CCCNC3)c2n1 (stereo in doubt; 29b) | 7.6 | – | – | > 20000 | – | – | 51 | 1.4 | – | – | 0.9 | CLH [2]: 0%; permeability [3]: 2 ×10⁻⁷ cm/s; EC50 ([5]; kg-1): 197 nM; CLH [6]: 15%
NC(=O)c1cc(Cl)c2c(Cl)c(C#CCO)n([C@H]3CCCNC3)c2n1 | 11 | 0 | 0.08 | – | 301 | – | 59 | 1.7 | 22 | 28 | 3 | efflux ratio at 5 µM [19]: 120
CC(C)(CC#Cc1c(Cl)c2c(Cl)cc(C(N)=O)nc2n1[C@H]1CCCNC1)C(N)=O | 21 | 0.01 | 0.4 | > 10000 | 269 | 0.06 | 133 | 4.7 | – | – | – | –
